From patent publication US9486506B2 (Novo Nordisk A/S, priority 2011, dated 2016)
Numbered stars: 1 amine (or outer) side, 2 acyl side, 3 side chain; on linkers, the order of the positions; unused ones are H or OH. Side chains are listed from the residue outwards. Peptide text beside a SMILES is read from it. * marks the point of attachment. C18 diacid = O=C(O)CCCCCCCCCCCCCCCCC(=O)*; γGlu = O=C(O)[C@H](CCC(=O)[*:2])N[*:1]; AEEA = NCCOCCOCC(=O)O

Experiments:
[1] = target: T1, glucagon receptor (Homo sapiens, UniProt P47871); assay: Assay (I) Glucagon activity (cAMP biosensor, FLIPR); type: cell-based
T1 construct: expressed in transfected cells
T1 sequence (P47871 26-477): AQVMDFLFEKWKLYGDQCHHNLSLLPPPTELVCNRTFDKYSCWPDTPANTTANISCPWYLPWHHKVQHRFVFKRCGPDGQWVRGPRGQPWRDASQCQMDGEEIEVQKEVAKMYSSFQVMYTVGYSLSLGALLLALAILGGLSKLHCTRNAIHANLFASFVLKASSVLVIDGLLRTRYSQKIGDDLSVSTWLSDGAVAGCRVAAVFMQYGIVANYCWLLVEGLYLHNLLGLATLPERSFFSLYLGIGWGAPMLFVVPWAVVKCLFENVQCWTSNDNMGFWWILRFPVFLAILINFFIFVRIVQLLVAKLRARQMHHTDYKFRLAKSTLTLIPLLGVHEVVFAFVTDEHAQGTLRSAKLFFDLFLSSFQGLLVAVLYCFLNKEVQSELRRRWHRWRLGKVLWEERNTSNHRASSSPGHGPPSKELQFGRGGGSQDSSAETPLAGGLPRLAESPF

[2] = Assay (X) Chemical stability assessment by RP-UPLC; type: physicochemical; details: pH 8.15, 14 days at 37° C. vs 5° C., 333 μM

SMILES | EC50 [1] | Chemical stability [Purity loss/14 days 37 C.] [2]
CC(C)C[C@H](NC(=O)[C@H](Cc1c[nH]c2ccccc12)NC(=O)[C@H](CCCCNC(=O)CC[C@H](NC(=O)CC[C@H](NC(=O)COCCOCCNC(=O)COCCOCCNC(=O)CC[C@H](NC(=O)CCCCCCCCCCCCCCCCC(=O)O)C(=O)O)C(=O)O)C(=O)O)NC(=O)[C@@H](NC(=O)[C@H](Cc1ccccc1)NC(=O)[C@H](CC(=O)O)NC(=O)[C@H](CCC(N)=O)NC(=O)[C@H](C)NC(=O)[C@H](CCCNC(=N)N)NC(=O)[C@H](CCCNC(=N)N)NC(=O)[C@@H](NC(=O)[C@H](CC(=O)O)NC(=O)[C@H](CC(C)C)NC(=O)[C@H](Cc1ccc(O)cc1)NC(=O)[C@H](CCCCN)NC(=O)[C@H](CO)NC(=O)[C@H](Cc1ccc(O)cc1)NC(=O)[C@H](CC(=O)O)NC(=O)[C@H](CO)NC(=O)[C@@H](NC(=O)[C@H](Cc1ccccc1)NC(=O)[C@@H](NC(=O)CNC(=O)[C@H](CCC(N)=O)NC(=O)[C@H](CO)NC(=O)[C@@H](N)Cc1c[nH]cn1)[C@@H](C)O)[C@@H](C)O)[C@@H](C)O)C(C)C)C(=O)N[C@@H](CC(C)C)C(=O)N[C@@H](CO)C(=O)N[C@H](C(N)=O)[C@@H](C)O [Example 39, N^ε24-[(4S)-4-carboxy-4-[[(4S)-4-carboxy-4-[[2-[2-[2-[[2-[2-[2-[[(4S)-4-carboxy-4-(17-carboxyheptadecanoylamino)butanoyl]amino]ethoxy]ethoxy]acetyl]amino]ethoxy]ethoxy]acetyl]amino]butanoyl]amino]butanoyl]-[Thr16,Lys24,Leu27,Ser28]-Glucagon amide] | 0.039 nM | 7.8%
CC(C)C[C@H](NC(=O)[C@H](Cc1c[nH]c2ccccc12)NC(=O)[C@H](CCCCNC(=O)COCCOCCNC(=O)CC[C@H](NC(=O)CC[C@H](NC(=O)COCCOCCNC(=O)CC[C@H](NC(=O)CCCCCCCCCCCCCCCCC(=O)O)C(=O)O)C(=O)O)C(=O)O)NC(=O)[C@@H](NC(=O)[C@H](Cc1ccccc1)NC(=O)[C@H](CC(=O)O)NC(=O)[C@H](CCC(N)=O)NC(=O)[C@H](C)NC(=O)[C@H](CCCNC(=N)N)NC(=O)[C@H](CCCNC(=N)N)NC(=O)[C@@H](NC(=O)[C@H](CC(=O)O)NC(=O)[C@H](CC(C)C)NC(=O)[C@H](Cc1ccc(O)cc1)NC(=O)[C@H](CCCCN)NC(=O)[C@H](CO)NC(=O)[C@H](Cc1ccc(O)cc1)NC(=O)[C@H](CC(=O)O)NC(=O)[C@H](CO)NC(=O)[C@@H](NC(=O)[C@H](Cc1ccccc1)NC(=O)[C@@H](NC(=O)CNC(=O)[C@H](CCC(N)=O)NC(=O)[C@H](CO)NC(=O)[C@@H](N)Cc1c[nH]cn1)[C@@H](C)O)[C@@H](C)O)[C@@H](C)O)C(C)C)C(=O)N[C@@H](CC(C)C)C(=O)N[C@@H](CO)C(=O)N[C@H](C(=O)O)[C@@H](C)O [Example 40, N^ε24-[2-[2-[2-[[(4S)-4-carboxy-4-[[(4S)-4-carboxy-4-[[2-[2-[2-[[(4S)-4-carboxy-4-(17-carboxyheptadecanoylamino)butanoyl]amino]ethoxy]ethoxy]acetyl]amino]butanoyl]amino]butanoyl]amino]ethoxy]ethoxy]acetyl]-[Thr16,Lys24,Leu27,Ser28]-Glucagon] | 0.078 nM | 7.5%
CC(C)C[C@H](NC(=O)[C@H](Cc1ccc(O)cc1)NC(=O)[C@H](CCCCN)NC(=O)[C@H](CO)NC(=O)[C@H](Cc1ccc(O)cc1)NC(=O)[C@H](CC(=O)O)NC(=O)[C@H](CO)NC(=O)[C@@H](NC(=O)[C@H](Cc1ccccc1)NC(=O)[C@@H](NC(=O)CNC(=O)[C@H](CCC(N)=O)NC(=O)[C@H](CO)NC(=O)[C@@H](N)Cc1c[nH]cn1)[C@@H](C)O)[C@@H](C)O)C(=O)N[C@@H](CC(=O)O)C(=O)N[C@@H](CCC(=O)O)C(=O)N[C@@H](CCCNC(=N)N)C(=O)N[C@@H](CCCNC(=N)N)C(=O)N[C@@H](C)C(=O)N[C@@H](CCC(N)=O)C(=O)N[C@@H](CC(=O)O)C(=O)N[C@@H](Cc1ccccc1)C(=O)N[C@H](C(=O)N[C@@H](CCCCNC(=O)CC[C@H](NC(=O)CC[C@H](NC(=O)COCCOCCNC(=O)COCCOCCNC(=O)CC[C@H](NC(=O)CCCCCCCCCCCCCCCCC(=O)O)C(=O)O)C(=O)O)C(=O)O)C(=O)N[C@@H](Cc1c[nH]c2ccccc12)C(=O)N[C@@H](CC(C)C)C(=O)N[C@@H](CC(C)C)C(=O)N[C@@H](CO)C(=O)N[C@H](C(=O)O)[C@@H](C)O)C(C)C [Example 41, N^ε24-[(4S)-4-carboxy-4-[[(4S)-4-carboxy-4-[[2-[2-[2-[[2-[2-[2-[[(4S)-4-carboxy-4-(17-carboxyheptadecanoylamino)butanoyl]amino]ethoxy]ethoxy]acetyl]amino]ethoxy]ethoxy]acetyl]amino]butanoyl]amino]butanoyl]-[Glu16,Lys24,Leu27,Ser28]-Glucagon] | 0.13 nM | 7.3%
CC(C)C[C@H](NC(=O)[C@H](Cc1ccc(O)cc1)NC(=O)[C@H](CCCNC(=N)N)NC(=O)[C@H](CO)NC(=O)[C@H](Cc1ccc(O)cc1)NC(=O)[C@H](CC(=O)O)NC(=O)[C@H](CO)NC(=O)[C@@H](NC(=O)[C@H](Cc1ccccc1)NC(=O)[C@@H](NC(=O)CNC(=O)[C@H](CCC(N)=O)NC(=O)[C@H](CO)NC(=O)[C@@H](N)Cc1c[nH]cn1)[C@@H](C)O)[C@@H](C)O)C(=O)N[C@@H](CC(=O)O)C(=O)N[C@@H](CCC(=O)O)C(=O)N[C@@H](CCCNC(=N)N)C(=O)N[C@@H](CCCNC(=N)N)C(=O)N[C@@H](C)C(=O)N[C@@H](CCC(N)=O)C(=O)N[C@@H](CC(=O)O)C(=O)N[C@@H](Cc1ccccc1)C(=O)N[C@H](C(=O)N[C@@H](CCCCNC(=O)CC[C@H](NC(=O)CC[C@H](NC(=O)COCCOCCNC(=O)COCCOCCNC(=O)CC[C@H](NC(=O)CCCCCCCCCCCCCCCCC(=O)O)C(=O)O)C(=O)O)C(=O)O)C(=O)N[C@@H](Cc1c[nH]c2ccccc12)C(=O)N[C@@H](CC(C)C)C(=O)N[C@@H](CC(C)C)C(=O)N[C@@H](CO)C(=O)N[C@H](C(=O)O)[C@@H](C)O)C(C)C [Example 42, N^ε24-[(4S)-4-carboxy-4-[[(4S)-4-carboxy-4-[[2-[2-[2-[[2-[2-[2-[[(4S)-4-carboxy-4-(17-carboxyheptadecanoylamino)butanoyl]amino]ethoxy]ethoxy]acetyl]amino]ethoxy]ethoxy]acetyl]amino]butanoyl]amino]butanoyl]-[Arg12,Glu16,Lys24,Leu27,Ser28]-Glucagon] (H-HSQGTFTSDYSRYLDERRAQDFVK([γGlu-γGlu-AEEA-AEEA-γGlu-C18 diacid])WLLST-OH) | 0.153 nM | 7.2%
CC(C)C[C@H](NC(=O)[C@H](Cc1ccc(O)cc1)NC(=O)[C@H](CCCCN)NC(=O)[C@H](CO)NC(=O)[C@H](Cc1ccc(O)cc1)NC(=O)[C@H](CC(=O)O)NC(=O)[C@H](CO)NC(=O)[C@@H](NC(=O)[C@H](Cc1ccccc1)NC(=O)[C@@H](NC(=O)CNC(=O)[C@H](CCC(N)=O)NC(=O)[C@H](CO)NC(=O)[C@@H](N)Cc1c[nH]cn1)[C@@H](C)O)[C@@H](C)O)C(=O)N[C@@H](CC(=O)O)C(=O)N[C@@H](C)C(=O)N[C@@H](CCCNC(=N)N)C(=O)N[C@@H](CCCNC(=N)N)C(=O)N[C@@H](C)C(=O)N[C@@H](CCC(N)=O)C(=O)N[C@@H](CC(=O)O)C(=O)N[C@@H](Cc1ccccc1)C(=O)N[C@H](C(=O)N[C@@H](CCCCNC(=O)CC[C@H](NC(=O)CC[C@H](NC(=O)COCCOCCNC(=O)COCCOCCNC(=O)CC[C@H](NC(=O)CCCCCCCCCCCCCCCCC(=O)O)C(=O)O)C(=O)O)C(=O)O)C(=O)N[C@@H](Cc1c[nH]c2ccccc12)C(=O)N[C@@H](CC(C)C)C(=O)N[C@@H](CC(C)C)C(=O)N[C@@H](CO)C(=O)N[C@H](C(=O)O)[C@@H](C)O)C(C)C [Example 43, N^ε24-[(4S)-4-carboxy-4-[[(4S)-4-carboxy-4-[[2-[2-[2-[[2-[2-[2-[[(4S)-4-carboxy-4-(17-carboxyheptadecanoylamino)butanoyl]amino]ethoxy]ethoxy]acetyl]amino]ethoxy]ethoxy]acetyl]amino]butanoyl]amino]butanoyl]-[Ala16,Lys24,Leu27,Ser28]-Glucagon] | 0.049 nM | 7.6%
CC(C)C[C@H](NC(=O)[C@H](Cc1c[nH]c2ccccc12)NC(=O)[C@H](CCCCNC(=O)CC[C@H](NC(=O)CC[C@H](NC(=O)COCCOCCNC(=O)COCCOCCNC(=O)CC[C@H](NC(=O)CCCCCCCCCCCCCCCCC(=O)O)C(=O)O)C(=O)O)C(=O)O)NC(=O)[C@@H](NC(=O)[C@H](Cc1ccccc1)NC(=O)[C@H](CC(=O)O)NC(=O)[C@H](CCC(N)=O)NC(=O)[C@H](C)NC(=O)[C@H](CCCNC(=N)N)NC(=O)[C@H](CCCNC(=N)N)NC(=O)[C@@H](NC(=O)[C@H](CC(=O)O)NC(=O)[C@H](CC(C)C)NC(=O)[C@H](Cc1ccc(O)cc1)NC(=O)[C@H](CCCNC(=N)N)NC(=O)[C@H](CO)NC(=O)[C@H](Cc1ccc(O)cc1)NC(=O)[C@H](CC(=O)O)NC(=O)[C@H](CO)NC(=O)[C@@H](NC(=O)[C@H](Cc1ccccc1)NC(=O)[C@@H](NC(=O)CNC(=O)[C@H](CCC(N)=O)NC(=O)[C@H](CO)NC(=O)[C@@H](N)Cc1c[nH]cn1)[C@@H](C)O)[C@@H](C)O)[C@@H](C)O)C(C)C)C(=O)N[C@@H](CCC(=O)O)C(=O)N[C@@H](CO)C(=O)N[C@H](C(=O)O)[C@@H](C)O [Example 44, N^ε24-[(4S)-4-carboxy-4-[[(4S)-4-carboxy-4-[[2-[2-[2-[[2-[2-[2-[[(4S)-4-carboxy-4-(17-carboxyheptadecanoylamino)butanoyl]amino]ethoxy]ethoxy]acetyl]amino]ethoxy]ethoxy]acetyl]amino]butanoyl]amino]butanoyl]-[Arg12,Thr16,Lys24,Glu27,Ser28]-Glucagon] (H-HSQGTFTSDYSRYLDTRRAQDFVK([γGlu-γGlu-AEEA-AEEA-γGlu-C18 diacid])WLEST-OH) | 0.176 nM | 10.5%
